Reference: patent US11083196B2, “Microbiocidal oxadiazole derivatives” (SYNGENTA PARTICIPATIONS AG, priority 2016, dated 2021)
Several values for one entry are separate records, joined by “and”; a condition that tells them apart may be missing. Identical values can stand only once.

Assays:
[1] = system: Puccinia recondita f. sp. tritici; assay: Fungicidal activity against Puccinia recondita f. sp. tritici / wheat / leaf disc curative (brown rust); assay type: in vivo; settings: foliar, 144 h, wheat leaf segments cv. Kanzler, applied 1 day after inoculation, assessed 6-8 days after application, compared to untreated control
Protocol: Leaf disks or leaf segments of various plant species are cut from plants grown in a greenhouse. The cut leaf disks or segments are placed in multiwell plates (24-well format) onto water agar. The leaf disks are sprayed with a test solution before (preventative) or after (curative) inoculation. Compounds to be tested are prepared as DMSO solutions (max. 10 mg/ml) which are diluted to the appropriate concentration with 0.025% Tween20 just before spraying. The inoculated leaf disks or segments are incubated under defined conditions (temperature, relative humidity, light, etc.) according to the respective test system. A single evaluation of disease level is carried out 3 to 14 days after inoculation, depending on the pathosystem. Percent disease control relative to the untreated check leaf disks or segments is then calculated. Wheat leaf segments cv. Kanzler are placed on agar in multiwell plates (24-well format). The leaf segments are inoculated with a spore suspension of the fungus. Plates are stored in darkness at 19° C. and 75% rh. The formulated test compound diluted in water is applied 1 day after inoculation. The leaf segments are incubated at 19° C. and 75% rh under a light regime of 12 h light/12 h darkness in a climate cabinet and the activity of a compound is assessed as percent disease control compared to untreated when an appropriate level of disease damage appears in untreated check leaf segments (6-8 days after application).

[2] = system: Glomerella lagenarium (Colletotrichum lagenarium); assay: Fungicidal activity against Glomerella lagenarium (Colletotrichum lagenarium), liquid culture / cucumber / preventative (anthracnose); assay type: cell-based; settings: Colletotrichum orbiculare, liquid culture (PDB), growth inhibition measured photometrically 3-4 days after application, compared to untreated control
Protocol: Mycelia fragments or conidia suspensions of a fungus, prepared either freshly from liquid cultures of the fungus or from cryogenic storage, are directly mixed into nutrient broth. DMSO solutions of the test compound (max. 10 mg/ml) is diluted with 0.025% Tween20 by a factor of 50 and 10 μl of this solution is pipetted into a microtiter plate (96-well format). The nutrient broth containing the fungal spores/mycelia fragments is then added to give an end concentration of the tested compound. The test plates are incubated in the dark at 24° C. and 96% relative humidity. The inhibition of fungal growth is determined photometrically after 2 to 7 days, depending on the pathosystem, and percent antifungal activity relative to the untreated check is calculated. Conidia of the fungus from cryogenic storage are directly mixed into nutrient broth (PDB potato dextrose broth). After placing a (DMSO) solution of test compound into a microtiter plate (96-well format), the nutrient broth containing the fungal spores is added. The test plates are incubated at 24° C. and the inhibition of growth is measured photometrically 3-4 days after application.

Phakopsora pachyrhizi = assay: Fungicidal activity against Phakopsora pachyrhizi / soybean / leaf disc preventative (Asian soybean rust); assay type: in vivo; settings: foliar, 288 h, soybean leaf disks, inoculated one day after application, assessed 12-14 days after application, compared to untreated control
Protocol: Leaf disks or leaf segments of various plant species are cut from plants grown in a greenhouse. The cut leaf disks or segments are placed in multiwell plates (24-well format) onto water agar. The leaf disks are sprayed with a test solution before (preventative) or after (curative) inoculation. Compounds to be tested are prepared as DMSO solutions (max. 10 mg/ml) which are diluted to the appropriate concentration with 0.025% Tween20 just before spraying. The inoculated leaf disks or segments are incubated under defined conditions (temperature, relative humidity, light, etc.) according to the respective test system. A single evaluation of disease level is carried out 3 to 14 days after inoculation, depending on the pathosystem. Percent disease control relative to the untreated check leaf disks or segments is then calculated. Soybean leaf disks are placed on water agar in multiwell plates (24-well format) and sprayed with the formulated test compound diluted in water. One day after application leaf discs are inoculated by spraying a spore suspension on the lower leaf surface. After an incubation period in a climate cabinet of 24-36 hours in darkness at 20° C. and 75% rh leaf disc are kept at 20° C. with 12 h light/day and 75% rh. The activity of a compound is assessed as percent disease control compared to untreated when an appropriate level of disease damage appears in untreated check leaf disks (12-14 days after application).

[3] = system: Puccinia recondita f. sp. tritici; assay: Fungicidal activity against Puccinia recondita f. sp. tritici / wheat / leaf disc preventative (brown rust); assay type: in vivo; settings: foliar, 168 h, wheat leaf segments cv. Kanzler, inoculated 1 day after application, assessed 7-9 days after application, compared to untreated control
Protocol: Leaf disks or leaf segments of various plant species are cut from plants grown in a greenhouse. The cut leaf disks or segments are placed in multiwell plates (24-well format) onto water agar. The leaf disks are sprayed with a test solution before (preventative) or after (curative) inoculation. Compounds to be tested are prepared as DMSO solutions (max. 10 mg/ml) which are diluted to the appropriate concentration with 0.025% Tween20 just before spraying. The inoculated leaf disks or segments are incubated under defined conditions (temperature, relative humidity, light, etc.) according to the respective test system. A single evaluation of disease level is carried out 3 to 14 days after inoculation, depending on the pathosystem. Percent disease control relative to the untreated check leaf disks or segments is then calculated. Wheat leaf segments cv. Kanzler are placed on agar in multiwell plates (24-well format) and sprayed with the formulated test compound diluted in water. The leaf disks are inoculated with a spore suspension of the fungus 1 day after application. The inoculated leaf segments are incubated at 19° C. and 75% rh under a light regime of 12 h light/12 h darkness in a climate cabinet and the activity of a compound is assessed as percent disease control compared to untreated when an appropriate level of disease damage appears in untreated check leaf segments (7-9 days after application).

Molecule `CC1COC(c2ccc(-c3noc(C(F)(F)F)n3)cc2)=N1` (centres unmarked) [Compound A-1, 3-[4-(4-methyl-4,5-dihydrooxazol-2-yl)phenyl]-5-(trifluoromethyl)-1,2,4-oxadiazole] has a pest or weed control at 200 ppm [1] of at least 80%, an inhibition of growth at 20 ppm [2] of at least 80% and a pest or weed control at 200 ppm (Phakopsora pachyrhizi) of at least 80%. For the same molecule, the pest or weed control at 200 ppm [3] was at least 80% and the melting point was 77 to 80 °C.

`FC(F)(F)c1nc(-c2ccc(C3=NCCO3)cc2)no1` [Compound A-3, 3-[4-(4,5-dihydrooxazol-2-yl)phenyl]-5-(trifluoromethyl)-1,2,4-oxadiazole] showed a pest or weed control at 200 ppm [1] of at least 80%, a pest or weed control at 200 ppm (Phakopsora pachyrhizi) of at least 80% and a pest or weed control at 200 ppm [3] of at least 80%. It also gave a melting point of 120 to 125 °C.

With `CC1=NOC(c2ccc(-c3noc(C(F)(F)F)n3)cc2)C1` (centres unmarked) [Compound A-4, 3-[4-(3-methyl-4,5-dihydroisoxazol-5-yl)phenyl]-5-(trifluoromethyl)-1,2,4-oxadiazole] the pest or weed control at 200 ppm [1] was at least 80%, the inhibition of growth at 20 ppm [2] was at least 80% and the pest or weed control at 200 ppm (Phakopsora pachyrhizi) was at least 80%. For the same molecule, the pest or weed control at 200 ppm [3] was at least 80% and the melting point was 89 to 92 °C.

With `CCC1=NOC(c2ccc(-c3noc(C(F)(F)F)n3)cc2)C1` (centres unmarked) [Compound A-5, 3-[4-(3-ethyl-4,5-dihydroisoxazol-5-yl)phenyl]-5-(trifluoromethyl)-1,2,4-oxadiazole] the pest or weed control at 200 ppm [1] was at least 80%, the inhibition of growth at 20 ppm [2] was at least 80% and the pest or weed control at 200 ppm (Phakopsora pachyrhizi) was at least 80%. It also gave a pest or weed control at 200 ppm [3] of at least 80% and a melting point of 75 to 80 °C.

With `CCCC1=NOC(c2ccc(-c3noc(C(F)(F)F)n3)cc2)C1` (centres unmarked) [Compound A-6, 3-[4-(3-propyl-4,5-dihydroisoxazol-5-yl)phenyl]-5-(trifluoromethyl)-1,2,4-oxadiazole] the pest or weed control at 200 ppm [1] was at least 80%, the inhibition of growth at 20 ppm [2] was at least 80% and the pest or weed control at 200 ppm (Phakopsora pachyrhizi) was at least 80%. The pest or weed control at 200 ppm [3] was at least 80% and the melting point was 79 to 83 °C.

`CC1(C)COC(c2ccc(-c3noc(C(F)(F)F)n3)cc2)NC1=O` (centres unmarked) [Compound A-10, 5,5-dimethyl-2-[4-[5-(trifluoromethyl)-1,2,4-oxadiazol-3-yl]phenyl]-1,3-oxazinan-4-one] gave an inhibition of growth at 20 ppm [2] of at least 80%, a pest or weed control at 200 ppm (Phakopsora pachyrhizi) of at least 80% and a pest or weed control at 200 ppm [3] of at least 80%. It also gave a melting point of 187.3 to 189 °C.

`FC(F)(F)c1nc(-c2ccc(C3CC(C4CC4)=NO3)cc2)no1` (centres unmarked) [Compound A-12, 3-[4-(3-cyclopropyl-4,5-dihydroisoxazol-5-yl)phenyl]-5-(trifluoromethyl)-1,2,4-oxadiazole] showed an inhibition of growth at 20 ppm [2] of at least 80%, a pest or weed control at 200 ppm (Phakopsora pachyrhizi) of at least 80% and a pest or weed control at 200 ppm [3] of at least 80%. It also gave a melting point of 109 to 112 °C.

Molecule `COCC(=O)NC1CSC(c2ccc(-c3noc(C(F)(F)F)n3)cc2)=N1` (centres unmarked) [Compound A-28, 2-methoxy-N-(2-[4-[5-(trifluoromethyl)-1,2,4-oxadiazol-3-yl]phenyl]-4,5-dihydrothiazol-4-yl]acetamide] has a pest or weed control at 200 ppm [1] of at least 80%, an inhibition of growth at 20 ppm [2] of at least 80% and a pest or weed control at 200 ppm (Phakopsora pachyrhizi) of at least 80%. The pest or weed control at 200 ppm [3] was at least 80%.

`CC(C)(C)[S+]([O-])NC1CSC(c2ccc(-c3noc(C(F)(F)F)n3)cc2)=N1` (centres unmarked) [Compound A-29, 2-methyl-N-[2-[4-[5-(trifluoromethyl)-1,2,4-oxadiazol-3-yl]phenyl]-4,5-dihydrothiazol-4-yl]propane-2-sulfinamide] gave a pest or weed control at 200 ppm [1] of at least 80%, an inhibition of growth at 20 ppm [2] of at least 80% and a pest or weed control at 200 ppm (Phakopsora pachyrhizi) of at least 80%. For the same molecule, the pest or weed control at 200 ppm [3] was at least 80%.

Work on `O=C(C1CC1)N1CCCC1c1ccc(-c2noc(C(F)(F)F)n2)cc1` (centres unmarked) [Compound A-36, cyclopropyl-[2-[4-[5-(trifluoromethyl)-1,2,4-oxadiazol-3-yl]phenyl]pyrrolidin-1-yl]methanone] yielded a pest or weed control at 200 ppm [1] of at least 80%, an inhibition of growth at 20 ppm [2] of at least 80% and a pest or weed control at 200 ppm (Phakopsora pachyrhizi) of at least 80%.

`CC(=O)OCc1cnc(-c2ccc(-c3noc(C(F)(F)F)n3)cc2)o1` [Compound C-1, [2-[4-[5-(trifluoromethyl)-1,2,4-oxadiazol-3-yl]phenyl]oxazol-5-yl]methyl acetate] showed a pest or weed control at 200 ppm [1] of at least 80%, a pest or weed control at 200 ppm (Phakopsora pachyrhizi) of at least 80% and a pest or weed control at 200 ppm [3] of at least 80%. The melting point was 69 to 71 °C.

For `Cc1cnc(-c2ccc(-c3noc(C(F)(F)F)n3)cc2)o1` [Compound C-2, 3-[4-(5-methyloxazol-2-yl)phenyl]-5-(trifluoromethyl)-1,2,4-oxadiazole], the pest or weed control at 200 ppm [1] was at least 80%, the pest or weed control at 200 ppm (Phakopsora pachyrhizi) was at least 80% and the pest or weed control at 200 ppm [3] was at least 80%. For the same molecule, the melting point was 110 to 111 °C and 109 to 111 °C.

`FC(F)(F)c1nc(-c2ccc(-c3nc(CCl)co3)cc2)no1` [Compound C-4, 3-[4-[4-(chloromethyl)oxazol-2-yl]phenyl]-5-(trifluoromethyl)-1,2,4-oxadiazole] gave an inhibition of growth at 20 ppm [2] of at least 80%, a pest or weed control at 200 ppm (Phakopsora pachyrhizi) of at least 80% and a melting point of 106 to 107 °C.

`CCOCc1cc(-c2ccc(-c3noc(C(F)(F)F)n3)cc2)no1` [Compound C-5, 3-[4-[5-(ethoxymethyl)isoxazol-3-yl]phenyl]-5-(trifluoromethyl)-1,2,4-oxadiazole] gave a pest or weed control at 200 ppm (Phakopsora pachyrhizi) of at least 80%.

In the case of `Fc1ccc(-c2ccc(-c3noc(C(F)(F)F)n3)cc2)cn1` [Compound D-6, 3-[4-(6-fluoro-3-pyridyl)phenyl]-5-(trifluoromethyl)-1,2,4-oxadiazole], the pest or weed control at 200 ppm [1] is reported as at least 80%, the inhibition of growth at 20 ppm [2] is reported as at least 80% and the pest or weed control at 200 ppm [3] is reported as at least 80%. For the same molecule, the melting point was 75 to 80 °C.

Molecule `Fc1cc(-c2ccc(-c3noc(C(F)(F)F)n3)cc2)ccn1` [Compound D-7, 3-[4-(2-fluoro-4-pyridyl)phenyl]-5-(trifluoromethyl)-1,2,4-oxadiazole] has a pest or weed control at 200 ppm [1] of at least 80%, an inhibition of growth at 20 ppm [2] of at least 80% and a pest or weed control at 200 ppm [3] of at least 80%. For the same molecule, the melting point was 105 to 110 °C.

For `Nc1ccc(-c2ccc(-c3noc(C(F)(F)F)n3)cc2)cn1` [Compound D-12, 5-[4-[5-(trifluoromethyl)-1,2,4-oxadiazol-3-yl]phenyl]pyridin-2-amine], the inhibition of growth at 20 ppm [2] was at least 80%, the pest or weed control at 200 ppm (Phakopsora pachyrhizi) was at least 80% and the pest or weed control at 200 ppm [3] was at least 80%. It also gave a melting point of 155 to 160 °C.

In the case of `Cc1cc(C)n(-c2ccc(-c3noc(C(F)(F)F)n3)cc2)n1` [Compound E-1, 3-[4-(3,5-dimethylpyrazol-1-yl)phenyl]-5-(trifluoromethyl)-1,2,4-oxadiazole], the pest or weed control at 200 ppm [1] is reported as at least 80%, the inhibition of growth at 20 ppm [2] is reported as at least 80% and the pest or weed control at 200 ppm [3] is reported as at least 80%. It also gave a melting point of 109 to 111 °C.
